The record followed here is ChEMBL document CHEMBL1201862, “PubChem BioAssay data set” (2004).

The structures appear in SMILES notation.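 Compound exposure: 48 hours, 5 concentrations, 96-well plates. At the GI50, growth is halved.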 Active and inactive are the calls of the source. Cut-off read from the data, not from the text of the source: active = GI50 up to about 1.1 µM and inactive = higher.

Test systems include BT-549; EKVX; HCC 2998; HCT-116; HCT-15; K562; MDA-MB-435; MOLT-4; NCI-H23; OVCAR-3; OVCAR-5; OVCAR-8; SF-268; SF-539; SK-MEL-5; SN12C; SNB-19; TK-10; UACC-62; UO-31.
Holding throughout (experiment): NCI-60 cell line screen, 48 h

In the case of `CN1CCc2cc(N)cc3c2C1Cc1ccc2c(c1-3)OCO2` (stereo not given), the GI50 in the test with BT-549 was 43 µM (inactive); in the test on EKVX, 50.9 µM (inactive); with HCC 2998, 19.6 µM (inactive); in the test with HCT-116 it was 27.7 µM (inactive); in the test on HCT-15, 32.3 µM; in the test with K562 it was 27 µM (inactive). Also, the GI50 was 9.59 µM (inactive) with MDA-MB-435; 1.46 µM (inactive) with MOLT-4; 34 µM (inactive) with NCI-H23; 27.1 µM (inactive) in the test on OVCAR-3; 42.4 µM (inactive) in the test on OVCAR-5; 21.6 µM (inactive) in the test with OVCAR-8. Also, the GI50 with SF-268 is 33.5 µM (inactive); in the test on SF-539, 33.9 µM (inactive); in the test on SK-MEL-5 it was 20.4 µM (inactive); with SN12C, 26.9 µM (inactive); with SNB-19, 61.8 µM (inactive); with TK-10 it was 45.8 µM (inactive). The GI50 is 22.8 µM (inactive) in the test with UACC-62 and 35.2 µM (inactive) with UO-31.

As to `C/C=C/c1cc2c(cc1O)CC[C@@H]1[C@@H]2CC[C@]2(C)[C@@H](O)CC[C@@H]12`, the GI50 in the test with BT-549 was 1.6 µM (inactive); in the test on EKVX, 5.07 µM (inactive); with HCC 2998, 0.705 µM (active); in the test on HCT-116, 0.022 µM (active); in the test on HCT-15, 0.069 µM; in the test with K562, 0.016 µM (active). For the same compound, the GI50 is 0.0102 µM (active) with MDA-MB-435; 0.0409 µM (active) in the test on MOLT-4; 0.133 µM (active) with NCI-H23; 0.0193 µM (active) in the test on OVCAR-3; 10.8 µM (inactive) in the test with OVCAR-5; 0.182 µM (active) in the test on OVCAR-8. Also, the GI50 with SF-268 is 0.217 µM (active); with SF-539, 0.0237 µM (active); in the test with SK-MEL-5, 0.0289 µM (active); in the test with SN12C it was 0.08 µM (active); with SNB-19, 0.0695 µM (active); in the test on TK-10, 14.3 µM (inactive). Further, the GI50 was 0.0246 µM (active) in the test with UACC-62 and 0.372 µM (active) with UO-31.

On to `CCCCCC(/C=C/[C@@H]1[C@@H](C(O)CCCCCC(=O)OC)C(=O)C[C@H]1O[Si](C)(C)C(C)(C)C)OCOCCOC` (stereo not given in full), for which the GI50 was 9.06 µM (inactive) in the test with BT-549; 18.8 µM (inactive) in the test with EKVX; 23 µM (inactive) with HCC 2998; 4.37 µM (inactive) with HCT-116; 7.98 µM in the test with HCT-15; > 21 µM (inactive) in the test with K562. For the same compound, the GI50 is 8 µM (inactive) with MDA-MB-435; 1.73 µM (inactive) with MOLT-4; 15 µM (inactive) with NCI-H23; 14.9 µM (inactive) with OVCAR-3; 21.1 µM (inactive) with OVCAR-5; 16.5 µM (inactive) in the test on OVCAR-8. Besides, the GI50 in the test with SF-268 is 14 µM (inactive); with SF-539, 7.11 µM (inactive); with SK-MEL-5, 14.5 µM (inactive); with SN12C, 19.7 µM (inactive); in the test with SNB-19 it was 15.3 µM (inactive); in the test on TK-10, 16.6 µM (inactive). Besides, the GI50 was 13.1 µM (inactive) with UACC-62 and 15.6 µM (inactive) in the test on UO-31.
